Data from patent US4190675A (priority 1976, dated 1980).
≈ marks a conversion by molar mass, not a printed value. Entries after “also recorded” stand apart in the source; their conditions may differ. Like-named read-outs stand apart in the source and are kept apart here. Each block holds one molecule with its values, some of them ahead of it.

What was measured:
Staphylococcus aureus = experiment: Antibacterial activity (MIC), Staphylococcus aureus; format: cell-based; details: for antibacterial activity, grade (in words): Gram-positive germs / overall; for antibacterial activity compared with Fraction 2 and sobrerol (in words): Staphylococcus aureus and Escherichia coli; for MIC: read-out: Minimum Inhibiting Concentration (MIC)
Escherichia coli = experiment: Antibacterial activity (MIC), Escherichia coli; format: cell-based; details: for MIC: read-out: Minimum Inhibiting Concentration (MIC); for antibacterial activity, grade (in words): Gram-negative germs
rats [1] = experiment: Carrageenin-induced paw oedema in rats (Winter); format: in vivo, albino rats, COBS (Charles River) stock; details: for anti-inflammatory action, grade (in words): overall summary; for % inhibition of plantar oedema: after 4 hours, 6 animals
[2] = Acute toxicity in rats (LD50, Litchfield and Wilcoxon); details: rat, in vivo, iv, intravenously
[3] = test system: isolated Guinea-pig trachea; experiment: Relaxation of the isolated Guinea-pig trachea (Costantine); format: cell-based; details: for relaxation of the smooth tracheal muscles, intensity compared with Fraction 2 and sobrerol (in words): in vitro, isolated Guinea-pig trachea; for bronchodilating activity, grade (in words): overall, in vitro and in vivo; for activation at 125 µg/mL: 125 μg/ml; for activation at 125 µg/mL / activation at 500 µg/mL / activation at 2000 µg/mL: average of 4 preparations; for activation at 500 µg/mL: 500 μg/ml; for activation at 2000 µg/mL: 2,000 μg/ml
thrombocyte aggregation = experiment: Inhibition of thrombocyte aggregation from ADP in vitro (Born and Cross); format: cell-based; details: for inhibition of thrombocyte aggregation compared with Fraction 2 and sobrerol (in words): 160 to 1,280 micrograms/ml, ADP, in vitro; for inhibition at 160 µg/mL: final concentration 160 μg/ml; for inhibition at 160 µg/mL / inhibition at 320 µg/mL / inhibition at 640 µg/mL / inhibition at 1280 µg/mL: average of repeated tests; for inhibition at 320 µg/mL: final concentration 320 μg/ml; for inhibition at 640 µg/mL: final concentration 640 μg/ml; for inhibition at 1280 µg/mL: final concentration 1280 μg/ml
red blood cells of rats = experiment: Protection of red blood cells from haemolysis induced by Tween 80, in vitro; format: cell-based; details: for EC50: Rattus norvegicus, Erythrocyte, Tween 80
Text: (fiducial limits 95% : 518.0-760.11).

rabbits [4] = experiment: Inhibition of histamine-induced bronchospasm by intravenous perfusion in rabbits; format: in vivo; details: for Percentage of inhibition of the histamine-induced bronchospasm: histamine 100 micrograms/kg i.v., average of 4 animals
rats [5] = experiment: Turpentine-induced pleuritis in rats (Hurley); format: in vivo; details: for Exudate / Inhibition: P <0.01
rabbits [6] = experiment: Acute toxicity in rabbits (LD50, Litchfield and Wilcoxon); format: in vivo
[7] = as above; format: in vivo; details: rabbit, in vivo, fiducial limits 95%
[8] = test system: isolated Guinea-pig trachea; experiment: Inhibition of histamine-induced contractions of the isolated Guinea-pig trachea; format: cell-based; details: histamine 10^-5 M, average
Text: In addition, at concentrations in the range of from 10^-3 M to 5.10^-3 M, it inhibits the histamine-induced contractions of the isolated Guinea-pig trachea (Histamine 10^-5 M, see TABLE 3).

mice = details: for Gleason classification: mice
dogs = experiment: Reduction of lung resistance in anesthetized dogs (Diamond); format: in vivo; details: intravenous; for Percentage reduction of the Lung Resistance: average for 4 animals
in vivo = details: mouse, LD50, mice, fiducial limits 95%
[9] = 30 mg/kg b.w. intraperitoneally
[10] = Cavia porcellus, read-out: Percentage of relaxation of the isolated Guinea-pig trachea
[11] = read-out: Thrombocyte aggregation % INHIBITION
[12] = intravenous perfusion 15 minutes
[13] = intravenous perfusion 30 minutes
[14] = intravenous perfusion 60 minutes
[15] = perfused intravenously 2.5 mls per kg b.w. per minute

SMILES: C=C1C(O)CC2CC1C2(C)C (centres unmarked) [Pinocarveol, pinocarveol]
antibacterial activity, grade (in words) (Staphylococcus aureus): poor antibacterial activity; also recorded: poor antibacterial action
antibacterial activity compared with Fraction 2 and sobrerol (in words) (Staphylococcus aureus): more active than sobrerol and as active as Fraction 2
MIC (Staphylococcus aureus; Staphylococcus aureus): 800 µg/mL (≈ 5.25 mM)
MIC (Escherichia coli; Escherichia coli): 800 µg/mL (≈ 5.25 mM)
antibacterial activity, grade (in words) (Escherichia coli): poor antibacterial activity
anti-inflammatory action, grade (in words) (rats [1]): pronounced anti-inflammatory action
inhibition of carrageenin paw oedema compared with Fraction 2 and sobrerol (in words) (rats [1]; rats, 30 mg/kg intravenously): more intense than those of Fraction 2 and of sobrerol
LD50 [2]: 140 mg/kg
relaxation of the smooth tracheal muscles, intensity compared with Fraction 2 and sobrerol (in words) [3]: statistically higher than that of sobrerol and which can be compared to that of Fraction 2
bronchodilating activity, grade (in words) [3]: fair bronchodilating action; also recorded: poor bronchodilating action
inhibition of thrombocyte aggregation compared with Fraction 2 and sobrerol (in words) (thrombocyte aggregation): exceeds that of the terpenes of the Fraction 2 and that of sobrerol
antiaggregative action, grade (in words) (thrombocyte aggregation; overall summary): conspicuous antiaggregative action
EC50 (red blood cells of rats; 20 to 200 micrograms/ml, fiducial limits 95%=111.5-153.04, read-out: Effective Concentration 50% (EC 50), protection from haemolysis): 132 µg/mL (≈ 0.869 mM)
antihaemolytic activity, grade (in words) (red blood cells of rats; overall summary): pronounced antihaemolytic activity
inhibition of histamine-induced bronchospasm compared with Fraction 2 and sobrerol (in words) (rabbits [4]; perfused intravenously 2.5 milligrams per kilogram and per minute): statistically higher than those of FRACTION 2 and of sobrerol

SMILES: CC1=CCC(C(C)(C)O)CC1O (centres unmarked) [Sobrerol, sobrerol, reference compound]
Minimum Inhibiting Concentration (MIC) (Staphylococcus aureus; Staphylococcus aureus): .infin.
Minimum Inhibiting Concentration (MIC) (Escherichia coli; Escherichia coli): .infin.
% inhibition of plantar oedema (rats [1]; [9]): 11%
percent relaxation of trachea at 125 µg/mL [3, 10]: 1.87%
percent relaxation of trachea at 500 µg/mL [3, 10]: 5.62%
percent relaxation of trachea at 2000 µg/mL [3, 10]: 20.8%
inhibition at 1000 µg/mL (thrombocyte aggregation; [11]): 4%
inhibition at 1500 µg/mL (thrombocyte aggregation; [11]): 12%
inhibition at 2000 µg/mL (thrombocyte aggregation; [11]): 24%
inhibition at 4000 µg/mL (thrombocyte aggregation; [11]): 32%
Percentage of inhibition of the histamine-induced bronchospasm (rabbits [4]; [12]): 2.15%
Percentage of inhibition of the histamine-induced bronchospasm (rabbits [4]; [13]): 1.15%
Percentage of inhibition of the histamine-induced bronchospasm (rabbits [4]; [14]): 3.97%

SMILES: CC(=O)Oc1ccccc1C(=O)O [Aspirin, aspirin, reference compound]
Exudate (rats [5]; 100 mgs/kg intraperitoneal): 1.30 mls.
Inhibition (rats [5]; 100 mgs/kg intraperitoneal): 34%

MIC (Staphylococcus aureus; Staphylococcus aureus): 200 µg/mL (≈ 1.33 mM)
MIC (Escherichia coli; Escherichia coli): 800 µg/mL (≈ 5.33 mM)
SMILES: CC1(C)C2CC=C(C=O)C1C2 (centres unmarked) [Myrtenal, myrtenal]
antibacterial activity, grade (in words) (Staphylococcus aureus): pronounced antibacterial activity on Gram-positive germs
antibacterial activity, grade (in words) (Staphylococcus aureus; listed as myrtenal): marked antibacterial action
antibacterial activity compared with Fraction 2 and sobrerol (in words) (Staphylococcus aureus): more active both than Fraction 2 and sobrerol
antibacterial activity, grade (in words) (Escherichia coli): less intense on Gram-negative ones
% inhibition of plantar oedema (rats [1]; [9]): 30%
anti-inflammatory action, grade (in words) (rats [1]): anti-inflammatory action of poor magnitude
inhibition of carrageenin paw oedema compared with Fraction 2 and sobrerol (in words) (rats [1]; rats, 30 mg/kg b.w. intraperitoneally): more intense than that of Fraction 2 and also than that of sobrerol
activation at 125 µg/mL [3, 10]: 7.5%
activation at 500 µg/mL [3, 10]: 47.5%
activation at 2000 µg/mL [3, 10]: 62.5%
relaxation of the smooth tracheal muscles, intensity compared with Fraction 2 and sobrerol (in words) [3]: statistically higher than that of the Fraction 2 and that of sobrerol
bronchodilating activity, grade (in words) [3]: fair bronchodilating activity
inhibition of thrombocyte aggregation compared with Fraction 2 and sobrerol (in words) (thrombocyte aggregation): higher than those of Fraction 2 and sobrerol
inhibition at 160 µg/mL (thrombocyte aggregation): 0%
inhibition at 320 µg/mL (thrombocyte aggregation): 12%
inhibition at 640 µg/mL (thrombocyte aggregation): 20%
inhibition at 1280 µg/mL (thrombocyte aggregation): 75%
EC50 (red blood cells of rats; 80 to 500 micrograms/ml, fiducial limits 95%=112.3-189.9, read-out: Effective Concentration 50%, protection from haemolysis): 157 µg/mL (≈ 1.05 mM)
Percentage of inhibition of the histamine-induced bronchospasm (rabbits [4]; [12]): 25.4%
Percentage of inhibition of the histamine-induced bronchospasm (rabbits [4]; [13]): 20.4%
Percentage of inhibition of the histamine-induced bronchospasm (rabbits [4]; [14]): 28.8%
inhibition of histamine-induced bronchospasm compared with Fraction 2 and sobrerol (in words) (rabbits [4]; [15]): statistically higher than that of sobrerol and slightly lower than that of Fraction 2

SMILES: CC1=CC(=O)[C@@H]2C[C@H]1C2(C)C [Verbenone, verbenone]
antiexudative activity compared with aspirin (in words) (rats [5]; 36 and 120 mg/kg b.w. intraperitoneally): intense antiexudative activity in the experimental, turpentine-induced pleuritis (Hurley, J. V. et al., J. Path., 91, 575,1966) to a degree which can be compared to that of aspirin
Exudate (rats [5]; 36 mgs/kg intraperitoneal): 1.23 mls.
Inhibition (rats [5]; 36 mgs/kg intraperitoneal): 37.6%
Exudate (rats [5]; 120 mgs/kg intraperitoneal): 0.97 mls.
Inhibition (rats [5]; 120 mgs/kg intraperitoneal): 50.1%
antibacterial activity, grade (in words) (Staphylococcus aureus): poor antibacterial activity
antibacterial activity compared with Fraction 2 and sobrerol (in words) (Staphylococcus aureus): as active as Fraction 2 and more active than sobrerol
MIC (Staphylococcus aureus; Staphylococcus aureus): 800 µg/mL (≈ 5.33 mM)
Gleason classification (rabbits [6]; i.p.): Poor
Gleason classification (rabbits [6]; p.o.): Poor
LD50 ([7]; ip, female): 232 mg/kg
LD50 ([7]; ip, male): 310 mg/kg
LD50 ([7]; po, female): 655 mg/kg
LD50 ([7]; po, male): 790 mg/kg
MIC (Escherichia coli; Escherichia coli): 800 µg/mL (≈ 5.33 mM)
antibacterial activity, grade (in words) (Escherichia coli): poor antibacterial activity
% inhibition of plantar oedema (rats [1]; [9]): 29%
inhibition of carrageenin paw oedema compared with Fraction 2 and sobrerol (in words) (rats [1]; normal and suprarenalectomized rats, 30 mg/kg b.w. intraperitoneally): significantly improved over those of the fraction 2 and of sobrerol
activation at 125 µg/mL [3, 10]: 26.2%
activation at 500 µg/mL [3, 10]: 61.2%
activation at 2000 µg/mL [3, 10]: 71.4%
relaxation of the smooth tracheal muscles, intensity compared with Fraction 2 and sobrerol (in words) [3]: significantly higher than that of the terpenes of the fraction 2 and also than that of sobrerol
bronchodilating activity, grade (in words) [3]: pronounced bronchodilating action; also recorded: pronounced bronchodilating activity
Percentage of inhibition of the histaminic spasm due to relaxation of the smooth tracheal muscles ([8]; 5.10^-3 M): 96.8%
inhibition at 1000 µM ([8]; Cavia porcellus, 10^-3 M, read-out: Percentage of inhibition of the histaminic spasm due to relaxation of the smooth tracheal muscles): 29.2%
inhibition of thrombocyte aggregation compared with Fraction 2 and sobrerol (in words) (thrombocyte aggregation): higher than that of the terpenes of the Fraction 2 and of sobrerol
inhibition at 160 µg/mL (thrombocyte aggregation): 0%
inhibition at 320 µg/mL (thrombocyte aggregation): 6%
inhibition at 640 µg/mL (thrombocyte aggregation): 44%
inhibition at 1280 µg/mL (thrombocyte aggregation): 100%
tolerability on the basis of acute toxicity data (mice; mice and rabbits, i.p. and p.o.): well tolerated
Gleason classification (mice; i.p.): Poor
Gleason classification (mice; p.o.): Slight
EC50 (red blood cells of rats; fiducial limits 95%: 518.0-760.11, read-out: effective concentration 50% (EC 50), protection from haemolysis): 640 µg/mL (≈ 4.26 mM)
Percentage reduction of the Lung Resistance (dogs; 0.6 mgs/kg b.w.): 7.175%
reduction of the lung resistances (in words) (dogs; 0.6 to 4.8 mgs/kg b.w.): pronounced reduction of the lung resistances
Percentage reduction of the Lung Resistance (dogs; 1.2 mgs/kg b.w.): 10.85%
Percentage reduction of the Lung Resistance (dogs; 2.4 mgs/kg b.w.): 22.225%
Percentage reduction of the Lung Resistance (dogs; 4.8 mgs/kg b.w.): 30.6%
LD50 (in vivo; ip, female): 325 mg/kg
LD50 (in vivo; ip, male): 361 mg/kg
LD50 (in vivo; po, female): 1530 mg/kg
LD50 (in vivo; po, male): 1410 mg/kg
Percentage of inhibition of the histamine-induced bronchospasm (rabbits [4]; [12]): 36.25%
Percentage of inhibition of the histamine-induced bronchospasm (rabbits [4]; [13]): 46.27%
Percentage of inhibition of the histamine-induced bronchospasm (rabbits [4]; [14]): 73.32%
inhibition of histamine-induced bronchospasm compared with Fraction 2 and sobrerol (in words) (rabbits [4]; [15]): statistically higher than that of the terpenes of the fraction 2 and also than that of sobrerol
